The target of one series is T1, NMDAR2A (Homo sapiens, UniProt Q12879).
T1 construct: expressed in transfected cells; host or cells: HEK cells (membrane extract)
The series can be described thus: NMDAR agonist assay, [3H]MK-801 binding, NMDAR2A expressing HEK cell membranes. In kind it is biochemical. Particulars: 50 μM glutamate; for EC50: read-out: NMDAR2A: log EC50 (converted). The procedure:
(§1) Assays were conducted as described by Moskal et al., “GLYX-13: a monoclonal antibody-derived peptide that acts as an N-methyl-D-aspartate receptor modulator,” Neuropharmacology, 49, 1077-87, 2005. These studies were designed to determine if the test compounds act to facilitate NMDAR activation in NMDAR2A, NMDAR2B, NMDAR2C or NMDAR2D expressing HEK cell membranes as measured by increases in [^3H]MK-801 binding.
(§2) In the assay, 300 μg of NMDAR expressing HEK cell membrane extract protein was preincubated for 15 minutes at 25° C. in the presence of saturating concentrations of glutamate (50 μM) and varying concentrations of test compound (1×10^−15M−1×10^−7M), or 1 mM glycine. Following the addition of […] of [^3H]MK-801 (22.5 Ci/mmol), reactions were again incubated for 15 minutes at 25° C. (nonequilibrium conditions). Bound and free [^3H]MK-801 were separated via rapid filtration using a Brandel apparatus.
(§3) In analyzing the data, the DPM (disintegrations per minute) of [^3H]MK-801 remaining on the filter were measured for each concentration of test compound or for 1 mM glycine. The DPM values for each concentration of a ligand (N=2) were averaged. The baseline value was determined from the best fit curve of the DPM values modeled using the GraphPad program and the log(agonist) vs. response (three parameters) algorithm was then subtracted from all points in the dataset. The % maximal [3H]MK-801 binding was then calculated relative to that of 1 mM glycine: all baseline subtracted DPM values were divided by the average value for 1 mM glycine. The EC50 and % maximal activity were then obtained from the best fit curve of the % maximal [3H]MK-801 binding data modelled using the GraphPad program and the log(agonist) vs. response (three parameters) algorithm.
(§4) The tables below summarize the results for the wild type […] NMDAR2A, NMDAR2B, NMDAR2C, and NMDAR2D, and whether the compound is not an agonist (−), is an agonist (+), or is a strong agonist (++), where column A is based on the % maximal [3H]MK-801 binding relative to 1 mM glycine (−=0; <100%=+; and >100%=++); and column B is based on log EC50 values (0=−; ≥1×10^−9 M (e.g., −8)=+; and <1×10^−9 M (e.g., −10)=++).

For the next series, the target named is T2, NMDAR2C (Homo sapiens, UniProt Q14957).
T2 construct: expressed in transfected cells; host or cells: HEK cells (membrane extract)
T2 sequence (Q14957 20-1233, species assumed, other chains not shown): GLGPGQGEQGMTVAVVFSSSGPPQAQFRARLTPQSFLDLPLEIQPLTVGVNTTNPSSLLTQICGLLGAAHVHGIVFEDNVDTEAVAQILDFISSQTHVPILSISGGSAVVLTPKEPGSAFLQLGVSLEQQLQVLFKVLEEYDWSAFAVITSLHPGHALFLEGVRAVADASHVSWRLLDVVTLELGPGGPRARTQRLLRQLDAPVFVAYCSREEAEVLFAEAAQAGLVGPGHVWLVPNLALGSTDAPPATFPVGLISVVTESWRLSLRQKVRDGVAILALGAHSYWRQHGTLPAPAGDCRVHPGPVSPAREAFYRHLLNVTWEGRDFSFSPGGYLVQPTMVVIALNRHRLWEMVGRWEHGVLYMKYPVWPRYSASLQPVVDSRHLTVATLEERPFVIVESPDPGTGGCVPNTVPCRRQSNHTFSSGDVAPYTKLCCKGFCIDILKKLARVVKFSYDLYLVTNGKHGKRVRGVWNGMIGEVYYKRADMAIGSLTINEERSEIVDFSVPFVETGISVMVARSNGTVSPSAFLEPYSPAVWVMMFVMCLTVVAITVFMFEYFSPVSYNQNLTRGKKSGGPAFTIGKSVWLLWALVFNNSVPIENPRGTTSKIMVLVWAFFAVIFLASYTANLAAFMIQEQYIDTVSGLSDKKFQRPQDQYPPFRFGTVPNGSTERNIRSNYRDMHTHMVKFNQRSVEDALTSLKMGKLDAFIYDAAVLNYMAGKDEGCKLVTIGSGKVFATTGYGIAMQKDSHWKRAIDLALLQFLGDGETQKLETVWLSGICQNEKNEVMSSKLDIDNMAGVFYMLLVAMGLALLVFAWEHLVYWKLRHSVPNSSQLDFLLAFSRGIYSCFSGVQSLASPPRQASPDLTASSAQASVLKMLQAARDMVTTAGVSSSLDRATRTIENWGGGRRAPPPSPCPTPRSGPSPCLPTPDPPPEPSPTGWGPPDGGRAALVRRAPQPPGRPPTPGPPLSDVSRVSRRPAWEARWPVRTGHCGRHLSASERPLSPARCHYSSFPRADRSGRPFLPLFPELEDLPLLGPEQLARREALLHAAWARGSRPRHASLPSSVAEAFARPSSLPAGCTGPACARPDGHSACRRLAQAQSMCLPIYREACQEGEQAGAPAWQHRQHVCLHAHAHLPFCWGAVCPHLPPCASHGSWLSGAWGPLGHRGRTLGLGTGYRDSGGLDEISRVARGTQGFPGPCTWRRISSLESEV
The series can be described thus: NMDAR agonist assay, [3H]MK-801 binding, NMDAR2C expressing HEK cell membranes. Particulars: 50 μM glutamate; for EC50: read-out: NMDAR2C: log EC50 (converted). It is filed as biochemical. The procedure:
as §1, §2, §3, §4

The target of a further series is T3, NMDAR2D (Homo sapiens, UniProt O15399).
T3 construct: expressed in transfected cells; host or cells: HEK cells (membrane extract)
T3 sequence (O15399 28-1336, species assumed, other chains not shown): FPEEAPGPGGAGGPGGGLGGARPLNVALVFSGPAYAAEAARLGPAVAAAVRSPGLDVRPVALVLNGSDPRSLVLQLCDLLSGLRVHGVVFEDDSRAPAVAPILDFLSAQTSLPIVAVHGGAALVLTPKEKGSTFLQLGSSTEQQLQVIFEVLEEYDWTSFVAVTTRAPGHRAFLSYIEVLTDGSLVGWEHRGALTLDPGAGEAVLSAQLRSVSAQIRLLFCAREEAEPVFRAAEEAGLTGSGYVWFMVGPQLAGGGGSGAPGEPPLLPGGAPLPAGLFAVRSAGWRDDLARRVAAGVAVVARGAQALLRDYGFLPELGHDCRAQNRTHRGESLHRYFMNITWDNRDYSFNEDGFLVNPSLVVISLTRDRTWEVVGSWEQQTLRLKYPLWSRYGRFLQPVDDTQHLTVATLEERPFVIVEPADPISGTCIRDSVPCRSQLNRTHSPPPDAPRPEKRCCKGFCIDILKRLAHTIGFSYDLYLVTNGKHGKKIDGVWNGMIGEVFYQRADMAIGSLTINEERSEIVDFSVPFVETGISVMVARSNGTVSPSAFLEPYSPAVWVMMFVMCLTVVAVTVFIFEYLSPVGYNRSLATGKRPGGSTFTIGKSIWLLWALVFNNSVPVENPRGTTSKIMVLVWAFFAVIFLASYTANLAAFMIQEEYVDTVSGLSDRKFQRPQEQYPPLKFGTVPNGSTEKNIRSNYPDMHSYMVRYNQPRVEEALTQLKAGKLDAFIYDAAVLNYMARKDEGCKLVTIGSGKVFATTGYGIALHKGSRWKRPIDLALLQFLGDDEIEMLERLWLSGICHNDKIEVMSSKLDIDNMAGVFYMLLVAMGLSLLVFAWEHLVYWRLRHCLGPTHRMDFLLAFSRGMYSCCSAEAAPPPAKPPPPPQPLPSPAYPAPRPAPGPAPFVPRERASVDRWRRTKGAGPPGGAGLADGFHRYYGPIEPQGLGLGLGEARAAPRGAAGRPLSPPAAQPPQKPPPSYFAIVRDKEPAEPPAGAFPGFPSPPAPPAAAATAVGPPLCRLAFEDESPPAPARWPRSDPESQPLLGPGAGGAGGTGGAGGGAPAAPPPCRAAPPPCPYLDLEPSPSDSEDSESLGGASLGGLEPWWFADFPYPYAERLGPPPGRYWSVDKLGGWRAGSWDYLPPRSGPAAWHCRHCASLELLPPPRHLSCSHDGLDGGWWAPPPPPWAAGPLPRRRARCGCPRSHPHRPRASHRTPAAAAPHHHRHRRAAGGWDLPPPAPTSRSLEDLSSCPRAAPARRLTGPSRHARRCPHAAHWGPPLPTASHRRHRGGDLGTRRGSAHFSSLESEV
The series can be described thus: NMDAR agonist assay, [3H]MK-801 binding, NMDAR2D expressing HEK cell membranes. In kind it is biochemical. To be noted: 50 μM glutamate. The procedure:
as §1, §2
as §3, with “algorithm. […]” for “algorithm.”

A further series can be described thus: IV pharmacokinetics. It is filed as in vivo, Sprague Dawley rats. To be noted: rat, 2 mg/kg, normal saline. Here is the method:
Sprague Dawley rats were dosed intravenously using a normal saline formulation containing 2 mg/kg of the compounds identified in the below table. The table below summarizes the results of the IV pharmacokinetics.

Series [1] deals with rats. As to the kind of experiment: Porsolt forced swim test. In kind it is in vivo, Sprague Dawley rats. Here is the method:
A non-clinical in vivo pharmacology study (Porsolt assay) was performed to measure antidepressant-like effects. A negative control (0.5% sodium carboxymethyl cellulose in 0.9% sterile saline vehicle) and a positive control (fluoxetine) are shown for comparison against test compound. The study allowed for the evaluation of the effects of each compound on the Porsolt forced swim test as assessed by the rats' response (reduced floating time) during a 5-minute swimming test.
Male 2-3 month old Sprague Dawley rats were used (Harlan, Indianapolis, IN). Rats were housed in Lucite cages with aspen wood chip bedding, maintained on a 12:12 light:dark cycle (lights on at 5 AM), and given ad libitum access to Purina lab chow (USA) and tap water throughout the study.
The Porsolt forced swim test adapted for use in rats was performed as described by Burgdorf et al., (The long-lasting antidepressant effects of rapastinel (GLYX-13) are associated with a metaplasticity process in the medial prefrontal cortex and hippocampus. Neuroscience 308:202-211, 2015). Animals were placed in a 46 cm tall×20 cm in diameter clear glass tube filled to 30 cm with tap water (23±1° C.) for 15 min on the first day (habituation) and 5 min on the subsequent test day. Positive control fluoxetine was dosed 3 times (24 h, 5 h and 1 h) prior to testing. Animals were tested 1 h or 24 h post-dosing with the test compounds or vehicle. Animals received a 15 min habituation session 1 day before the 5 min test. Water was changed after every other animal. Animals were videotaped, and floating time as defined as the minimal amount of effort required to keep the animals head above water was scored offline by a blinded experimenter with high inter-rater reliability (Pearson's r>0.9).
Each compound tested at dose level shown. Significance vs. vehicle group for each experiment is marked. […] A compound marked “No” was not statistically significant from vehicle. Data was averaged for test compound and vehicle groups (N approximately 8 per group) and the percent reduction in floating for group treated with test compound relative to group treated with vehicle is shown.

The target of another series is T4, NMDAR2B (Homo sapiens, UniProt Q13224).
T4 construct: expressed in transfected cells; host or cells: HEK cells (membrane extract)
The series can be described thus: NMDAR agonist assay, [3H]MK-801 binding, NMDAR2B expressing HEK cell membranes. In kind it is biochemical. To be noted: 50 μM glutamate. The procedure:
as §1, §2, §3, §4

For series [2], the system named is rats. The series can be described thus: Bennett model of mechanical analgesia (sciatic nerve chronic constriction injury). In kind it is in vivo, Sprague Dawley rats. To be noted: 150 mg/kg PO. The procedure: The Bennett model of mechanical analgesia is used to assess the analgesic effects of compounds as measured by paw withdrawal threshold. Bennett G J, Xie Y K, “A peripheral mononeuropathy in rat that produces disorders of pain sensation like those seen in man,” Pain 33:87-107, 1988. […] Vehicle animals receive the surgery and then receive vehicle rather than test compound. Animals were tested 1 hr, 24 h and 1 wk post-test compound or vehicle administration.
Male 2-3 month old Sprague Dawley rats were used. Harlan was the supplier for all studies. Rats were housed in Lucite cages with aspen wood chip bedding, maintained on a 12:12 light:dark cycle (lights on at 5 AM), and given ad libitum access to Purina lab chow (USA) and tap water throughout the study.
Rats were anesthetized using inhaled isoflurane (2.5%). Sciatic nerve chronic constriction nerve injury surgery was performed as previously described (Bennett and Xie, 1988). An incision (˜1.5 cm in length) was made with a scalpel blade dorsally through skin on the right hind limb, parallel and posterior to femur. Using a small pointed hemostat, the biceps femoris and gluteus superficialis muscles were separated. Using curved blunt forceps, the common sciatic nerve was isolated and exposed. For the mechanical analgesia studies, the whole sciatic nerve was ligated. Using hemostats/forceps and chromic gut (5-0), the nerve was loosely ligated with a square knot; 3 ligatures, 1 mm apart were placed on the nerve. […] Testing occurred approximately 2 weeks post-surgery.
During testing, rats were acclimated to the surface of a suspended wire mesh grid (1 cm×1 cm, with the wire being 0.3 cm in diameter) for 15-20 min. Starting from the smallest, each Von Frey filament was pressed perpendicularly to the plantar surface of the affected (ipsilateral) hind paw until slightly bent and then held for 6 second. If an obvious hind paw withdrawal or a flinching behavior immediately after the withdrawal of the filament was not observed, the next larger filament was used in the same manner. In case of a response, a lower filament was used. This was repeated until six responses were collected.
For all studies, animals were baselined prior to study start to test for allodynia (defined as a paw withdrawal threshold under 5). A subset of animals was tested with gabapentin (150 mg/kg, PO) to ensure at least 50% analgesia. Once it was confirmed animals were ready for study initiation, animals were balanced across groups. All study investigators were blind to treatment conditions. Animals were dosed with 0.1, 1, 10, or 30 mg/kg of test compound via oral gavage (PO), control sets of animals were dosed with gabapentin (150 mg/kg, PO) or vehicle (0.5% Na-CMC in 0.9% sterile saline, PO). Testing occurred 1 h post-dosing with animals retested 24 hrs and 1 week post-dosing. The percent analgesia calculations for each animal were made using the following equation: % analgesia=[(log(x)−y)/((log(z)−y)]*100, where x=the paw withdrawal threshold for the drug-treated animal in grams, y=the average of the log(x) values for the vehicle treated group, and z=the paw withdrawal threshold for naïve animals in grams (historical value of 15 used). The results for Compound AA-2, where the percentage of analgesia is measured at 1 hour, 24 hours, and 1 week after compound administration are as follows: for 0.1 mg/kg dose: 22.3% at 1 h, 1.6% at 24 h, and 2.3% at 1 wk; for 1 mg/kg dose: 19.2% at 1 h, 10.7% at 24 h, and 11.0% at 1 wk; for 10 mg/kg dose: 38.1% at 1 h, 24.3% at 24 h, and 41.4% at 1 wk; and for 30 mg/kg dose: 24.4% at 1 h, 8.7% at 24 h, and 34.5% at 1 wk.

Setting [3] is: 1 h post-dose, 0.1 mg/kg, Yes = statistically significant (p<=0.05) from vehicle.
Setting [4] is: 24 h post-dose, 0.1 mg/kg, Yes = statistically significant (p<=0.05) from vehicle.

As usually defined, the EC50 is the concentration giving half of the maximal effect.

The structures appear in SMILES notation.

T1 sequence (Q12879 23-1464, species assumed, other chains not shown): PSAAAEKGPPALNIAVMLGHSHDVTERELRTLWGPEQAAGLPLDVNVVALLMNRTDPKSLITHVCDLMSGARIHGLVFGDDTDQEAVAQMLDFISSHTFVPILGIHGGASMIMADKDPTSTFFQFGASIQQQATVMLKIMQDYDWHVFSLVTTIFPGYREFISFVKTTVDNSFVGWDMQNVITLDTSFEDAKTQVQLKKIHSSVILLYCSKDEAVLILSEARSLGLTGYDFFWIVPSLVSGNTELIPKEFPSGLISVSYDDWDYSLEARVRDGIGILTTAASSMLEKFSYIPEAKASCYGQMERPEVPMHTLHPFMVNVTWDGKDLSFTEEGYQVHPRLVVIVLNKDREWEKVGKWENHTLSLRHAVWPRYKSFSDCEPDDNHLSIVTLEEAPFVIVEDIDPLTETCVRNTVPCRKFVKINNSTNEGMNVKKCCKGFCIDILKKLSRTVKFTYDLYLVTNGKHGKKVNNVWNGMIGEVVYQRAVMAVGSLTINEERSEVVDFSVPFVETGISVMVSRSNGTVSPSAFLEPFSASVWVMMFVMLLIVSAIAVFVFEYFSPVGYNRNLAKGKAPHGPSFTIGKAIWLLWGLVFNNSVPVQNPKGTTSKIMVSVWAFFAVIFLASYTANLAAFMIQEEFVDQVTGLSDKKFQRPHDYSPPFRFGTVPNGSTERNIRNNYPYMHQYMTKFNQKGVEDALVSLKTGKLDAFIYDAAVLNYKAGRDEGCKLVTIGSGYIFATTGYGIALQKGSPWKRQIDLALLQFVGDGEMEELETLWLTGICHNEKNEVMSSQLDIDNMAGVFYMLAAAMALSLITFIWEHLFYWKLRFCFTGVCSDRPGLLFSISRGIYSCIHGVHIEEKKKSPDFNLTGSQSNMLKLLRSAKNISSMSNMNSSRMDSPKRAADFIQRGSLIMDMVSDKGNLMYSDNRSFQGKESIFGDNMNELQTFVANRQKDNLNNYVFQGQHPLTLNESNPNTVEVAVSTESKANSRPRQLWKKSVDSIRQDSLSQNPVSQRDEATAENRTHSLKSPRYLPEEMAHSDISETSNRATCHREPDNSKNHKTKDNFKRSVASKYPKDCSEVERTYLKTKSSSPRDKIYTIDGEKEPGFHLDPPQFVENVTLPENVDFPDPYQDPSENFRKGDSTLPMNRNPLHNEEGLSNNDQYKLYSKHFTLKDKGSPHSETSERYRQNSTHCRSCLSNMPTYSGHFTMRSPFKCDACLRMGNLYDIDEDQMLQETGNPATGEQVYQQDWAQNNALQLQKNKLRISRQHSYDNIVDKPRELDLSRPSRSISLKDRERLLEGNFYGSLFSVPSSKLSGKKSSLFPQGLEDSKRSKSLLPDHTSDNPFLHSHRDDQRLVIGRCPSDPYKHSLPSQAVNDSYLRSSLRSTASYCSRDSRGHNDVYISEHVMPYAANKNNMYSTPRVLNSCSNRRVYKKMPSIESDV

Take `COc1ccc(CN2CC3(CCNC(=O)C3)C2=O)cc1` (racemic) [AA-rac, 2-(4-methoxybenzyl)-2,7-diazaspiro[3.5]nonane-1,6-dione]: the EC50 at NMDAR2A and at NMDAR2C was > 0.1 µM throughout. Further, at NMDAR2C, the “NMDAR2C A: % maximal [3H]MK-801 binding relative to 1 mM glycine” value was “− (−=0)”. Besides, the “NMDAR2D: % maximal [3H]MK-801 binding relative to 1 mM glycine” value on NMDAR2D was “+ (<100%=+)”. The CI in the series “IV pharmacokinetics” stood at 5.28 mL/min/kg. The Significance vs. vehicle entry with rats [1] (setting [3]) and in the series on rats [1] (setting [4]) was “Yes” in each case.

Turning to `CCN1CCC2(CC1=O)CN(Cc1ccc(OC)cc1)C2=O` (single isomer, unassigned) [CL, 7-ethyl-2-(4-methoxybenzyl)-2,7-diazaspiro[3.5]nonane-1,6-dione], the “NMDAR2A: % maximal [3H]MK-801 binding relative to 1 mM glycine” value at NMDAR2A was “+ (<100%=+)”. Also, the “NMDAR2B: % maximal [3H]MK-801 binding relative to 1 mM glycine” value at NMDAR2B is listed as “+ (<100%=+)”. Moreover, the CI in “IV pharmacokinetics” was determined as 41.73 mL/min/kg.

As to `C[C@@H](O)[C@@H](C(=O)N(C)C)N1CC2(CCNC(=O)C2)C1=O` (single isomer, unassigned) [CC], at NMDAR2A (read-out: NMDAR2A: % maximal [3H]MK-801 binding relative to 1 mM glycine), the Emax was 0%. Further, the EC50 at NMDAR2A is > 0.1 µM. The CI in the series “IV pharmacokinetics” was 15.65 mL/min/kg.

On to `NCC1(CC(=O)O)CCCCC1` [gabapentin], for which the figures for the “% analgesia, control group of the study” value in the series with rats [2] (1 week post-administration), in the series with rats [2] (1 h post-administration) and in the series on rats [2] (24 h post-administration) were “under 5%”, “at least 50%” and “under 5%”, respectively. The figures for the “% analgesia, example (typical) control values” in the series with rats [2] (1 wk), in the series on rats [2] (1 h) and in the series on rats [2] (24 h) were 0%, 72% and 16%, respectively.

In the case of `COc1ccc(CN2C[C@]3(CCNC(=O)C3)C2=O)cc1` [AA-1, 2-(4-methoxybenzyl)-2,7-diazaspiro[3.5]nonane-1,6-dione], the EC50 on NMDAR2A and at NMDAR2C was > 0.1 µM in each case. Besides, the “NMDAR2C A: % maximal [3H]MK-801 binding relative to 1 mM glycine” value on NMDAR2C is listed as “− (−=0)”. Further, the “NMDAR2D: % maximal [3H]MK-801 binding relative to 1 mM glycine” value on NMDAR2D is listed as “+ (<100%=+)”. Besides, the CI in the series “IV pharmacokinetics” amounted to 9.69 mL/min/kg. Also, the Significance vs. vehicle entry in the series on rats [1] (setting [3]) and in the series with rats [1] (setting [4]) was “Yes” each time.

With `C[C@@H](O)[C@@H](C(=O)NCc1ccccc1)N1CC2(CCNC(=O)C2)C1=O` (single isomer, unassigned) [CB], the “NMDAR2A: % maximal [3H]MK-801 binding relative to 1 mM glycine” value on NMDAR2A is “− (−=0)”. For the same compound, the “NMDAR2B: % maximal [3H]MK-801 binding relative to 1 mM glycine” value at NMDAR2B was “+ (<100%=+)”. The same compound returned a CI in “IV pharmacokinetics” of 25.31 mL/min/kg.

On to `COc1ccc(CN2C[C@@]3(CCNC(=O)C3)C2=O)cc1` [Compound AA-2, 2-(4-methoxybenzyl)-2,7-diazaspiro[3.5]nonane-1,6-dione], for which the EC50 on NMDAR2A and at NMDAR2C was > 0.1 µM in each case. At NMDAR2C, the “NMDAR2C A: % maximal [3H]MK-801 binding relative to 1 mM glycine” value is reported as “− (−=0)”. Besides, on NMDAR2D, the “NMDAR2D: % maximal [3H]MK-801 binding relative to 1 mM glycine” value is given as “+ (<100%=+)”. In “IV pharmacokinetics”, the CI was 9.82 mL/min/kg. In addition, the Significance vs. vehicle entry with rats [1] (setting [3]) and with rats [1] (setting [4]) was “Yes” throughout.

`CNCCC(Oc1ccc(C(F)(F)F)cc1)c1ccccc1` (centres unmarked) [Fluoxetine, fluoxetine, reference compound]: in the series on rats [1] (1 h post-dose, 20 mg/kg, dosed 3 times (24 h, 5 h and 1 h) prior to testing, positive control), the Significance vs. vehicle entry is “Yes”.

`COc1ccc(CN2CC3(CCN(C)C(=O)C3)C2=O)cc1` (single isomer, unassigned) [CI, 2-(4-methoxybenzyl)-7-methyl-2,7-diazaspiro[3.5]nonane-1,6-dione] returned a CI in the series “IV pharmacokinetics” of 32 mL/min/kg.

Source of the values: patent publication US12157736B2, “Spiro-lactam NMDA modulators and methods of using same” (Tenacia Biotechnology (Hong Kong) Co., Limited, priority 2016, dated 2024).
